Biological target: Adenylate cyclase type 5 (Rattus norvegicus, UniProt Q04400)
Assay: Compound was evaluated for inhibition of adenylate cyclase from rat brain
Type: tissue-based

Chain of Adenylate cyclase type 5 (Q04400 whole entry): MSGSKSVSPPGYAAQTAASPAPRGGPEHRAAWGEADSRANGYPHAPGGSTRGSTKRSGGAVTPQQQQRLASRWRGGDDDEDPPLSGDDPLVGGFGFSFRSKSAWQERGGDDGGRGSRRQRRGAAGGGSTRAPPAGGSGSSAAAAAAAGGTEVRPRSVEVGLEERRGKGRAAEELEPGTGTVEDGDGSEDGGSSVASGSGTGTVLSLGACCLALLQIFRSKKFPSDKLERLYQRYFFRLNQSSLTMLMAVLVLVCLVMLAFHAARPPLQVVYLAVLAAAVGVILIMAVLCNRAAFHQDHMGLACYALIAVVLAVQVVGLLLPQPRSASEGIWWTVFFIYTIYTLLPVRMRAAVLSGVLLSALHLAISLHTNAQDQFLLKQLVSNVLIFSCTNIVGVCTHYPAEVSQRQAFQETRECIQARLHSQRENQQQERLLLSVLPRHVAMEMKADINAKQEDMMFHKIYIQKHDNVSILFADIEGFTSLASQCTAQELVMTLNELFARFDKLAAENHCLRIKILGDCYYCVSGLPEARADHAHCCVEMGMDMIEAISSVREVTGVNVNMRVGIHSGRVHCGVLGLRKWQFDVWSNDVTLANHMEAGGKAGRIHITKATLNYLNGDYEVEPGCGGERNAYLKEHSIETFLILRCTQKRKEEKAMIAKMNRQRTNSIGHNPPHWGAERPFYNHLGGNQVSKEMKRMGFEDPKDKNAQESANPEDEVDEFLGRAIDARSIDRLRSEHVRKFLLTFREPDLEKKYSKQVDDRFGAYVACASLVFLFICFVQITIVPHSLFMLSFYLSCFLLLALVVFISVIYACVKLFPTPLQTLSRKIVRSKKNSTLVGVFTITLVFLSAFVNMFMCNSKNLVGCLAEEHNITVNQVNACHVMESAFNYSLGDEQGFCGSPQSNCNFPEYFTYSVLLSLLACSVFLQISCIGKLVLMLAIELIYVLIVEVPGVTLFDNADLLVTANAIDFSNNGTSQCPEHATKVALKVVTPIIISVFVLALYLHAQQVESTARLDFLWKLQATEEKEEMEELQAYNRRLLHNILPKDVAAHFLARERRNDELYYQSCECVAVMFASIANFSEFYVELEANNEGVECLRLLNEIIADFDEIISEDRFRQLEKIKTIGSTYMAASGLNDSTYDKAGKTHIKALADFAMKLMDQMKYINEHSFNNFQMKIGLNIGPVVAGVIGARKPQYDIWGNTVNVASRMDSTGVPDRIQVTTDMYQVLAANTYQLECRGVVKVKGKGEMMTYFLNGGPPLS

| SMILES | IC50 |
| --- | --- |
| Nc1nc(F)nc2c1ncn2[C@H]1C[C@H](O)[C@@H](CO)O1 (stereo in doubt; form 1) | 4.6 µM |
| C[C@@H]1O[C@H](n2cnc3c(N)ncnc32)C[C@H]1O | 2.8 µM |
| Nc1ncnc2c1ncn2[C@@H]1O[C@H](CO)[C@@H](O)[C@H]1O [ADENOSINE] | > 300 µM |
| Nc1ncnc2c1ncn2[C@H]1C[C@H](O)[C@@H](CO)O1 [DEOXYADENOSINE] | 15 µM |
| C[C@H]1O[C@@H](n2cnc3c(N)nc(F)nc32)C[C@@H]1O (stereo in doubt; form 1) | > 100 µM |
| C[C@H]1O[C@@H](n2cnc3c(N)nc(F)nc32)C[C@@H]1O (stereo in doubt; form 2) | 0.89 µM |
| Nc1ncnc2c1ncn2[C@@H]1O[C@H](CO)[C@@H](O)[C@@H]1O [VIDARABINE] | 82 µM |

Further lines, results first:

| IC50 | SMILES |
| --- | --- |
| 29 µM | Nc1nc(F)nc2c1ncn2[C@H]1C[C@H](O)[C@@H](CF)O1 (stereo in doubt; form 1) |
| > 100 µM | Nc1nc(F)nc2c1ncn2[C@H]1C[C@H](O)[C@@H](CO)O1 (stereo in doubt; form 2) |
| 0.98 µM | Nc1nc(F)nc2c1ncn2[C@H]1C[C@H](O)[C@@H](CF)O1 (stereo in doubt; form 2) |
